Experimental data from publication PMC11024961, “Effects of Chrysin and Chrysin-7-sulfate on Ochratoxin A-Albumin Interactions and on the Plasma and Kidney Levels of the Mycotoxin in Rats” (ACS Omega, 2024).
pKd: −log10 of the molar value. “And” between values parts separate entries of the source, which are not always exact repeats. Equal entries are not always repeated.

Experiments:
[1] = biological target: T1, human serum albumin (HSA) (Homo sapiens, UniProt P02768); assay: Fluorescence emission intensity of OTA-HSA with ligands; format: binding; details: ligand 0–30 μM; OTA 1.0 μM, HSA 1.5 μM; λex 393 nm, λem 446 nm; inner-filter corrected
T1 construct: purchased Merck (Darmstadt, Germany) A1653
T1 sequence (P02768 25-609): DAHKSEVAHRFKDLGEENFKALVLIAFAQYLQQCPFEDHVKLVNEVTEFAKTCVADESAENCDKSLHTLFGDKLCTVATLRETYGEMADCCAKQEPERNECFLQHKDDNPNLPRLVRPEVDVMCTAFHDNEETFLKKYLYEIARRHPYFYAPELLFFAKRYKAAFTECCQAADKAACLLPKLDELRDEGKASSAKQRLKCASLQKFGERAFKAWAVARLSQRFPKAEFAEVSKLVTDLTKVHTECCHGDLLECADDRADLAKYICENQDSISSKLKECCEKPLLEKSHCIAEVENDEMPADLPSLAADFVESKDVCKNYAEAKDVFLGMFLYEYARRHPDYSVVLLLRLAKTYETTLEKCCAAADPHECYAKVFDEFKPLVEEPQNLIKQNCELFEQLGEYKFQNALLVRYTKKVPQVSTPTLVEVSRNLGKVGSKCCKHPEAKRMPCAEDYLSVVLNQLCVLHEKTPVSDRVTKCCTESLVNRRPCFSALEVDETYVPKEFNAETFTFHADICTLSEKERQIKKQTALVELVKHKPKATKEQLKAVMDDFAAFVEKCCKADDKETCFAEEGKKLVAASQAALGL
Protocol: (§1) Fluorescence spectroscopic studies were carried out using a Hitachi F-4500 spectrofluorometer (Tokyo, Japan). Fluorescence emission spectra were collected, and fluorescence anisotropy values were determined in phosphate-buffered saline (PBS, pH 7.4) at room temperature, using 393 and 446 nm as excitation and emission wavelengths, respectively. […] Absorption spectra of ligand molecules were also recorded employing a Jasco V730 UV–vis spectrophotometer (Tokyo, Japan), after which their inner-filter effects were corrected using the following equation:[28],[29] [drawing 1] 1 where Icor and Iobs are the corrected and the observed fluorescence emission intensities at 446 nm, respectively, while Aex and Aem are the absorbance values of the competitor ligand molecules at 393 and 446 nm, respectively.

[2] = biological target: T1, human serum albumin (HSA); assay: Fluorescence anisotropy of OTA-HSA with ligands; format: binding
Protocol: as §1
(§2) Fluorescence anisotropy (r) values were calculated employing the following equation:[10],[30] [drawing 2] 2 where IVV is the emission intensity measured in vertical positions of the polarizers at both the presample and the postsample sites, IVH is the emission intensity measured in vertical position of the polarizer at presample site and in horizontal position of the polarizer at the postsample site, while G is the instrumental factor (showing the preference of the emission optics for the horizontal orientation to the vertical orientation).

rat serum albumin (RSA) [3] = biological target: T2, rat serum albumin (RSA) (Rattus norvegicus, UniProt P02770); assay: Fluorescence emission intensity of OTA-RSA with ligands; format: binding; details: ligand 0–30 μM; OTA 1.0 μM, RSA 1.5 μM; λex 393 nm, λem 446 nm; inner-filter corrected
T2 construct: purchased Merck (Darmstadt, Germany) A6272
T2 sequence (P02770 25-608): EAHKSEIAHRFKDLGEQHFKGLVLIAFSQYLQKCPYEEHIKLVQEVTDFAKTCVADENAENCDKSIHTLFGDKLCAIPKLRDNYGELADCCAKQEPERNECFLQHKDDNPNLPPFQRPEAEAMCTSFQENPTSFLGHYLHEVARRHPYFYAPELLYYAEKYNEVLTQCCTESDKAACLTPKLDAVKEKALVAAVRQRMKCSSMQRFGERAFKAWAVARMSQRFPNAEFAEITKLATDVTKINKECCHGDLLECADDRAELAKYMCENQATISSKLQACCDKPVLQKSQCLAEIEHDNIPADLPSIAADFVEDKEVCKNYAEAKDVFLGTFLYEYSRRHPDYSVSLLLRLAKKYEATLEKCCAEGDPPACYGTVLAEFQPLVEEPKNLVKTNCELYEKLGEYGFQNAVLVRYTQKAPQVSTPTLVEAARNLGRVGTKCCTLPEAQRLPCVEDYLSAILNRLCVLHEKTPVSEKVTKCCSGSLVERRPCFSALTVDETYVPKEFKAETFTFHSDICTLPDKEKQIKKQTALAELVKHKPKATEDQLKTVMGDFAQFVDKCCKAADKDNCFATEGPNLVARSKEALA
Protocol: as §1

rat serum albumin (RSA) [4] = biological target: T2, rat serum albumin (RSA); assay: Fluorescence anisotropy of OTA-RSA with ligands; format: binding; details: ligand 0–30 μM; OTA 1.0 μM, RSA 1.5 μM
Protocol: as §1, §2

rat serum albumin (RSA) [5] = biological target: T2, rat serum albumin (RSA); assay: biochemical; format: binding
Protocol: (§3) Albumin (with the bound ligand molecules) was sedimented with ultracentrifugation, employing the previously described method.[26],[29],[31] […] These solutions (900 μL) were centrifuged for 16 h at 170,000g and 20 °C, using an Optima MAX-XP tabletop ultracentrifuge (with an MLA-130 fixed-angle rotor; Beckman Coulter, Brea, CA, US). After 200 μL of the protein-free supernatant was carefully aspirated, the free unbound concentration of OTA was directly analyzed from the supernatant by HPLC-FLD (details in Section 2.6). Association constants (Ka) of OTA-HSA and OTA-RSA complexes were calculated based on the following equation, assuming 1:1 stoichiometry of the complex formation:[29],[32] [drawing 3] 3 where [OTA] is the concentration of the unbound free mycotoxin, [SA] is the concentration of the unbound free serum albumin, while [OTA-SA] is the molar concentration of the mycotoxin-albumin complex in the solution.
(§4) OTA was quantified with the previously reported HPLC-FLD method,[48] employing an integrated HPLC system (Jasco, Tokyo, Japan): autosampler (AS-4050), binary pump (PU-4180), fluorescence detector (FP-920), and ChromNAV2 software. Briefly, the isocratic elution was performed with 1.0 mL/min flow rate at room temperature, using sodium borate buffer (0.01 M, pH 10.0) and ACN (87:13 v/v%) as the mobile phase. Samples (20 μL) were driven through a SecurityGuard precolumn (C18, 4.0 × 3.0 mm; Phenomenex, Torrance, CA, US) linked to a Kinetex EVO (C18, 150 × 4.6 mm, 5 μm; Phenomenex) analytical column. The fluorescence detection of the mycotoxin was carried out at 383 and 446 nm excitation and emission wavelengths, respectively.

[6] = biological target: T1, human serum albumin (HSA); assay: biochemical; format: binding; details: for unbound fraction of OTA with HSA: OTA 1.0 μM, HSA 1.5 μM, PBS pH 7.4
Protocol: as §3, §4

[7] = test system: Bovine serum albumin (BSA); set-up: method as in doi:10.1016/j.jlumin.2013.08.059; details: cited from earlier work
[8] = set-up: method as in PMID 37649524; details: cited from earlier work
HSA [9] = details: cited from earlier work
rat serum albumin (RSA) [10] = biological target: T2, rat serum albumin (RSA); set-up: method as in doi:10.1016/j.jlumin.2013.08.059; details: cited from earlier work
[11] = Plasma and kidney levels of OTA after repeated peroral OTA with or without CHR; format: in vivo, Wistar rats; details: CHR 1 or 3 mg/kg/day per os with OTA 100 μg/kg/day, three days; sampled on the fourth day
Protocol: (§5) Male Wistar rats were obtained from Toxi-Coop Ltd. (Budapest, Hungary). The animals (weighing 150–250 g) were kept at 24 ± 2 °C, at 50–60% relative air humidity, and on a 12 h light/dark cycle in the Laboratory Animal House of the Department of Pharmacology and Pharmacotherapy (Medical School, University of Pécs) under standard pathogen-free conditions and were provided with standard rat chow and tap water ad libitum.
Stock solution of OTA (10 mg/mL) was prepared in 96 v/v% ethanol (Reanal, Budapest, Hungary). C7S (90 mg/mL) were dissolved in dimethyl sulfoxide (Fluka, Charlotte, NC, US). In the i.v. experiments, the final concentration of dimethyl sulfoxide was uniformly 1.67 v/v % in each solution administered. In the per os experiments, CHR was suspended in physiological saline by using a mortar and pestle. […]
Sample preparation was performed as it has been previously reported.[48] […] These samples were directly analyzed by HPLC-FLD (see Section 2.6). […]
OTA was quantified with the previously reported HPLC-FLD method,[48] employing an integrated HPLC system (Jasco, Tokyo, Japan): autosampler (AS-4050), binary pump (PU-4180), fluorescence detector (FP-920), and ChromNAV2 software. […] The fluorescence detection of the mycotoxin was carried out at 383 and 446 nm excitation and emission wavelengths, respectively.

HSA [12] = test system: HSA; set-up: method as in PMID 30562928; details: cited from earlier work
[13] = Plasma and kidney levels of OTA after single i.v. OTA with or without C7S; format: in vivo, Wistar rats
Protocol: as §5
Stock solution of OTA (10 mg/mL) was prepared in 96 v/v% ethanol (Reanal, Budapest, Hungary). C7S (90 mg/mL) were dissolved in dimethyl sulfoxide (Fluka, Charlotte, NC, US). In the i.v. experiments, the final concentration of dimethyl sulfoxide was uniformly 1.67 v/v % in each solution administered. In the per os experiments, CHR was suspended in physiological saline by using a mortar and pestle.
In the first experiment, rats were weighed and then treated intravenously through the tail vein with OTA (50 μg/kg, 2 mL/kg, in physiological saline) without or with C7S (1 or 3 mg/kg). Before and after the treatment, rats consumed feed and water ad libitum. Blood samples (approximately 100–150 μL) were collected from the tail vein into heparinized tubes after 2 and 6 h. After 24 h, blood (cardiac puncture) and kidney samples were collected. Plasma and tissue samples were stored at −80 °C until analysis.
Sample preparation was performed as it has been previously reported.[48] Briefly, after centrifugation, rat plasma was diluted with a 2-fold volume of acetonitrile, and then samples were vortexed, sonicated for 3 min, and centrifuged for 5 min at 14,000g and 4 °C. Thereafter, a 2-fold volume of HPLC eluent (see in Section 2.6) was added to the supernatant. These samples were directly analyzed by HPLC-FLD (see Section 2.6).
After weighing, kidney samples were homogenized with a 2-fold amount of water employing a Potter–Elvehjem tissue homogenizer. Then, 100 μL of homogenate was diluted with 2-fold volume of acetonitrile, after which these samples were treated the same way as plasma samples (vortexing, sonication, centrifugation, 2-fold dilution with HPLC eluent, and then HPLC-FLD analysis).
OTA was quantified with the previously reported HPLC-FLD method,[48] employing an integrated HPLC system (Jasco, Tokyo, Japan): autosampler (AS-4050), binary pump (PU-4180), fluorescence detector (FP-920), and ChromNAV2 software. Briefly, the isocratic elution was performed with 1.0 mL/min flow rate at room temperature, using sodium borate buffer (0.01 M, pH 10.0) and ACN (87:13 v/v%) as the mobile phase. […] The fluorescence detection of the mycotoxin was carried out at 383 and 446 nm excitation and emission wavelengths, respectively.

[14] = ligand 0–30 μM, OTA 1.0 μM, HSA 1.5 μM
[15] = C7S 3 mg/kg i.v. with OTA 50 μg/kg i.v., 24 h

O=C(CCCCC(=O)Nc1c(I)cc(I)c(C(=O)O)c1I)Nc1c(I)cc(I)c(C(=O)O)c1I [iodipamide]
effect on emission signal of OTA-HSA complex, in words [1]: only slightly modified | effect on fluorescence anisotropy of OTA-HSA, in words [2, 14]: only slightly decreased | effect on emission signal of OTA-RSA complex, in words (rat serum albumin (RSA) [3]): only slightly modified | effect on fluorescence anisotropy of OTA-RSA, in words (rat serum albumin (RSA) [4]): only slightly decreased | displacement of OTA from RSA (free fraction), in words (rat serum albumin (RSA) [5]; ligand 0–30 μM, overall): weak displacing effects | displacement of OTA from HSA (free fraction), in words ([6]; ligand 30 μM): only minor displacement

C[C@@H]1Cc2c(Cl)cc(C(=O)N[C@@H](Cc3ccccc3)C(=O)O)c(O)c2C(=O)O1 [OTA, Ochratoxin A]
pKd (rat serum albumin (RSA) [5]; Ka of OTA-RSA complex, no competitor, OTA 1.0 μM, RSA up to 1.5 μM, PBS pH 7.4, 1:1 stoichiometry): 6.47 and 6.46 | pKd [6]: 7.40 | binding constant of OTA-BSA complex [7]: > 10^6 L/mol | fold weaker complex with BSA compared to HSA [7]: approximately 10 fold | free unbound fraction in the human circulation [8]: 0.02% | plasma elimination half-life in man [8]: approximately 35 days | association/binding constant of the OTA-HSA complex (HSA [9]): exceeds 10^7 L/mol | fold weaker complex with RSA compared to HSA (rat serum albumin (RSA) [10]): approximately 10 fold

O=c1cc(-c2ccccc2)oc2cc(O)cc(O)c12 [CHR, Chrysin]
effect on emission signal of OTA-HSA complex, in words [1]: strong decreases | effect on fluorescence anisotropy of OTA-HSA, in words [2, 14]: only slightly decreased | effect on emission signal of OTA-RSA complex, in words (rat serum albumin (RSA) [3]): strong decreases | effect on fluorescence anisotropy of OTA-RSA, in words (rat serum albumin (RSA) [4]): only slightly decreased | displacement of OTA from RSA (free fraction), in words (rat serum albumin (RSA) [5]; ligand 0–30 μM, overall): weak displacing effects | displacement of OTA from HSA (free fraction), in words ([6]; ligand 30 μM): only minor displacement | effect on kidney levels of OTA, in words [11]: did not cause statistically significant changes | effect on plasma levels of OTA, in words [11]: did not cause statistically significant changes

O=c1cc(-c2ccccc2)oc2cc(OS(=O)(=O)O)cc(O)c12 [C7S, chrysin-7-sulfate]
effect on emission signal of OTA-HSA complex, in words [1]: strong decreases | effect on fluorescence anisotropy of OTA-HSA, in words [2, 14]: marked reduction | effect on emission signal of OTA-RSA complex, in words (rat serum albumin (RSA) [3]): strong decreases | displacement of OTA from RSA (free fraction), in words (rat serum albumin (RSA) [5]; ligand 0–30 μM, overall): strongly disrupted | displacement of OTA from RSA (free fraction), in words (rat serum albumin (RSA) [5]; ligand 30 μM): almost completely displaced | fold lower Ka of OTA-RSA in the presence of the ligand (rat serum albumin (RSA) [5]; ligand 30 μM): approximately 100 fold | displacement of OTA from HSA (free fraction), in words ([6]; ligand 0–30 μM, overall): strongly interfered | unbound fraction of OTA with HSA ([6]; ligand 15 μM): 55% | fold lower Ka of OTA-HSA in the presence of the ligand ([6]; ligand 30 μM): approximately 100 fold | unbound fraction of OTA with HSA ([6]; ligand 30 μM): 75% | affinity to HSA, fold higher than CHR (HSA [12]): 3 fold | effect on plasma levels of OTA, in words ([13]; C7S 1 mg/kg i.v. with OTA 50 μg/kg i.v., 2, 6 and 24 h): did not induce significant changes | effect on kidney levels of OTA, in words ([13]; C7S 1 mg/kg i.v. with OTA 50 μg/kg i.v., 24 h): did not affect | effect on kidney levels of OTA, in words [13, 15]: slightly decreased | effect on plasma levels of OTA, in words [13, 15]: not statistically significant

hemin
effect on emission signal of OTA-HSA complex, in words [1]: remarkable decreases | effect on fluorescence anisotropy of OTA-HSA, in words [2, 14]: smaller, gradual decreases | effect on fluorescence anisotropy of OTA-HSA, in words ([2]; ligand 15 μM): marked decreases | effect on emission signal of OTA-RSA complex, in words (rat serum albumin (RSA) [3]): remarkable decreases | effect on fluorescence anisotropy of OTA-RSA, in words (rat serum albumin (RSA) [4]): smaller, gradual decreases | displacement of OTA from RSA (free fraction), in words (rat serum albumin (RSA) [5]; ligand 15 and 30 μM): weak to moderate impacts | displacement of OTA from HSA (free fraction), in words ([6]; ligand 0–30 μM, overall): better displacing effect than bilirubin

C=CC1=C(C)/C(=C/c2[nH]c(Cc3[nH]c(/C=C4\NC(=O)C(C)=C4C=C)c(C)c3CCC(=O)O)c(CCC(=O)O)c2C)NC1=O [bilirubin]
effect on emission signal of OTA-HSA complex, in words [1]: remarkable decreases | effect on fluorescence anisotropy of OTA-HSA, in words [2, 14]: smaller, gradual decreases | effect on fluorescence anisotropy of OTA-HSA, in words ([2]; ligand 15 μM): marked decreases | effect on emission signal of OTA-RSA complex, in words (rat serum albumin (RSA) [3]): remarkable decreases | effect on fluorescence anisotropy of OTA-RSA, in words (rat serum albumin (RSA) [4]): smaller, gradual decreases | displacement of OTA from RSA (free fraction), in words (rat serum albumin (RSA) [5]; ligand 0–30 μM, overall): moderate to strong displacement | displacement of OTA from HSA (free fraction), in words ([6]; ligand 30 μM): only a minor elevation | displacement of OTA from HSA (free fraction), in words ([6]; ligand 3 and 15 μM): no significant increase
